Data reported in patent US20090004121A1, “Combination of picotamide with nafronyl” (priority 2007, published 2009).
Structures can show the parent of a compound that is named as a salt. Where two headings read alike, the source gives them in different places.

Assays:
Assay type in all cases: cell-based
[1] = system: Thoracic aortic rings; test: Contracting effect on rat aortic rings (organ bath); settings: mean ±S.E.M.
Method: Thoracic aortic rings obtained from male Wistar rats are carefully cleaned of connective tissue. The aortic rings are suspended in the isolated muscle bath (20 mL). Each segment is suspended under a tension of 1 g in Krebs buffer (NaCl 118 mM, KCl 5.4 mM, CaCl2 2.5 mM, MgCl2.6H2O 1.5 mM, NaHCO3 25 mM, NaH2PO4 1.2 mM, glucose 10 mM; pH 7.4) which was bubbled with O2 95%/CO2 5% at 37° C. in 20 mL organ baths (EMKA Technologies, Paris, France). The muscle tension of aortic rings is isometrically recorded with a force-displacement transducer IT1 (EMKA Technologies, Paris, France). The buffer is renewed at 15 min intervals during the equilibrium period (40 min) before exposing the rings to the TXA2-mimetic U-46619 (20 nM), 8-iso-prostaglandin F2α (1 μM) or serotonin (5-hydroxy-tryptamine, 5-HT, 2 μM). When a stable tension is obtained (15 min), the compound of interest is added at a cumulative increasing concentration to the bath until the tension returned to the baseline value. Tension is recorded with a specific data acquisition program (IOX 1.445, EMKA Technologies, Paris, France). The EC50 value of each drug is assessed for at least 6 concentration-response curves obtained from separate preparations. EC50 is expressed as the concentration which reduces 50% of the tension induced by the contracting agent. The results are expressed as mean ±S.E.M. Nafronyl oxalate was obtained from Sigma-Aldrich; picotamide monohydrate was obtained from the European Directory of Quality of Medicines. […] These values are in line with results obtained in previous studies (S. W. Watts and J. M. Thompson, J Pharmacol Exp Ther 309:165-172, 2004; M. Lohn et al., FASEB J 16:1057-63, 2002).

[2] = system: Thoracic aortic rings precontracted with serotonin; test: Relaxation of rat aortic rings using serotonin 2 μM as contracting agent; settings: for EC50: Rattus norvegicus, read-out: EC50 relaxing effect
Method: (§1) Thoracic aortic rings obtained from male Wistar rats are carefully cleaned of connective tissue. The aortic rings are suspended in the isolated muscle bath (20 mL). Each segment is suspended under a tension of 1 g in Krebs buffer (NaCl 118 mM, KCl 5.4 mM, CaCl2 2.5 mM, MgCl2.6H2O 1.5 mM, NaHCO3 25 mM, NaH2PO4 1.2 mM, glucose 10 mM; pH 7.4) which was bubbled with O2 95%/CO2 5% at 37° C. in 20 mL organ baths (EMKA Technologies, Paris, France). The muscle tension of aortic rings is isometrically recorded with a force-displacement transducer IT1 (EMKA Technologies, Paris, France). The buffer is renewed at 15 min intervals during the equilibrium period (40 min) before exposing the rings to the TXA2-mimetic U-46619 (20 nM), 8-iso-prostaglandin F2α (1 μM) or serotonin (5-hydroxy-tryptamine, 5-HT, 2 μM). When a stable tension is obtained (15 min), the compound of interest is added at a cumulative increasing concentration to the bath until the tension returned to the baseline value. Tension is recorded with a specific data acquisition program (IOX 1.445, EMKA Technologies, Paris, France). The EC50 value of each drug is assessed for at least 6 concentration-response curves obtained from separate preparations. EC50 is expressed as the concentration which reduces 50% of the tension induced by the contracting agent. The results are expressed as mean ±S.E.M. Nafronyl oxalate was obtained from Sigma-Aldrich; picotamide monohydrate was obtained from the European Directory of Quality of Medicines. Nafronyl oxalate was confirmed to be a potent serotonin antagonist with an EC50 1.54·10^−8 M for its relaxing effect.

[3] = system: rat aorta rings pretreated with 8-iso-prostaglandin F2α; test: Relaxation of rat aortic rings using 8-iso-prostaglandin F2α 1 μM as contracting agent
Method: as §1, with “Relaxation experiments on aortas precontracted” for “Nafronyl oxalate was confirmed to be a potent serotonin antagonist”, “8-iso-prostaglandin F2α 1 μM were done with picotamide monohydrate alone in increasing concentrations of 10^−8 M, 10^−7 M, 10^−6 M, 10^−5 M, 10^−4 M, as well as with the same concentrations of picotamide monohydrate in the presence of 1 μM nafronyl.” for “an EC50 1.54·10^−8 M for its relaxing effect.”

SMILES	EC50 [1]	EC50 ([3]; drug alone)	other results
CCCCC[C@H](O)/C=C/[C@@H]1[C@H](C/C=C\CCCC(=O)O)[C@@H](O)C[C@H]1O [8-iso-PGF2α, 8-iso-prostaglandin F2α]	1 ± 0.1 µM	–	–
NCCc1c[nH]c2ccc(O)cc12 [serotonin, 5-hydroxy-tryptamine]	0.98 ± 0.09 µM	–	–

Further lines, with some results ahead:

EC50 [1]	EC50 ([3]; drug alone)	SMILES	other results
–	3.88 µM	CCN(CC)CCOC(=O)C(Cc1cccc2ccccc12)CC1CCCO1 (stereo not drawn) [Nafronyl oxalate, 2-diethylaminoethyl 2-(naphthalen-1-ylmethyl)-3-(oxolan-2-yl)propanoate]	EC50 ([2]; drug alone): 0.0154 µM; EC50 ([2]; in the presence of 10^−6 M picotamide): 0.0133 µM
–	16.4 µM	COc1ccc(C(=O)NCc2cccnc2)cc1C(=O)NCc1cccnc1 [Picotamide monohydrate, N,N′-bis-(3-picolyl)-4-methoxy-isophthalamide]	tension reduction ([2]; 10^−5 M picotamide): 30%; EC50 ([3]; together with 10^−6 M nafronyl oxalate): 2.34 µM
0.0122 ± 0.00268 µM	–	CCCCC[C@H](O)/C=C/[C@@H]1[C@@H](C/C=C\CCCC(=O)O)[C@H]2CO[C@@H]1C2 [U-46619]	–
